How the values were obtained:
[1] = Liquid; for speed of sound: Frequency=2 MHz, Pulse-echo method; for mass density: Vibrating tube method
[2] = molar heat capacity at constant pressure; settings: 101.33 kPa, Liquid, Small sample (50 mg) DSC

CCCCCCCCCCCC(=O)OCC [ethyl dodecanoate]
[1]
Settings	mass density [kg/m3]	speed of sound [m/s]
293.15 K, 100 kPa	–	1339.9
293.15 K, 101.33 kPa	862.2	–
293.15 K, 10000 kPa	–	1390.8
293.15 K, 20000 kPa	–	1436.7
293.15 K, 30000 kPa	–	1479.3
293.15 K, 40000 kPa	–	1519
293.15 K, 50000 kPa	–	1555.9
293.15 K, 60000 kPa	–	1591.9
293.15 K, 70000 kPa	–	1626.2
293.15 K, 80000 kPa	–	1659.7
293.15 K, 90000 kPa	–	1690.9
293.15 K, 100000 kPa	–	1720.9
293.15 K, 120000 kPa	–	1778.5
303.15 K, 101.33 kPa	854.3	–
313.15 K, 100 kPa	–	1266.1
313.15 K, 101.33 kPa	846.5	–
313.15 K, 10000 kPa	–	1317.6
313.15 K, 20000 kPa	–	1365
313.15 K, 30000 kPa	–	1409.3
313.15 K, 40000 kPa	–	1452.1
313.15 K, 50000 kPa	–	1491.4
313.15 K, 60000 kPa	–	1529.2
313.15 K, 70000 kPa	–	1564.8
313.15 K, 80000 kPa	–	1600.2
313.15 K, 90000 kPa	–	1632.3
313.15 K, 100000 kPa	–	1663
313.15 K, 120000 kPa	–	1721.9
313.15 K, 140000 kPa	–	1777.9
313.15 K, 160000 kPa	–	1830.9
323.15 K, 101.33 kPa	838.8	–
333.15 K, 100 kPa	–	1194
333.15 K, 101.33 kPa	831.1	–
333.15 K, 10000 kPa	–	1250.3
333.15 K, 20000 kPa	–	1300.9
333.15 K, 30000 kPa	–	1348
333.15 K, 40000 kPa	–	1393.4
333.15 K, 50000 kPa	–	1434.3
333.15 K, 60000 kPa	–	1473.3
333.15 K, 70000 kPa	–	1509.8
333.15 K, 80000 kPa	–	1545.4
333.15 K, 90000 kPa	–	1578.6
333.15 K, 100000 kPa	–	1610.9
333.15 K, 120000 kPa	–	1674.1
333.15 K, 140000 kPa	–	1730.4
333.15 K, 160000 kPa	–	1782.7
333.15 K, 180000 kPa	–	1835.3
333.15 K, 200000 kPa	–	1883.8
343.15 K, 101.33 kPa	823.2	–
353.15 K, 100 kPa	–	1125.7
353.15 K, 101.33 kPa	815.2	–
353.15 K, 10000 kPa	–	1186
353.15 K, 20000 kPa	–	1240.6
353.15 K, 30000 kPa	–	1290.3
353.15 K, 40000 kPa	–	1337.1
353.15 K, 50000 kPa	–	1379.7
353.15 K, 60000 kPa	–	1419.8
353.15 K, 70000 kPa	–	1458.8
353.15 K, 80000 kPa	–	1496.2
353.15 K, 90000 kPa	–	1530.6
353.15 K, 100000 kPa	–	1564.4
353.15 K, 120000 kPa	–	1627
353.15 K, 140000 kPa	–	1685.1
353.15 K, 160000 kPa	–	1740.7
353.15 K, 180000 kPa	–	1793.6
353.15 K, 200000 kPa	–	1843.5

viscosity [mPa·s], [1]
Settings	293.15 K	313.15 K	333.15 K	353.15 K
101.33 kPa, Capillary tube (Ostwald / Ubbelohde) method	3.35	2.19	1.55	1.16
10000 kPa, quartz crystal resonator	3.77	2.46	1.74	1.29
20000 kPa, quartz crystal resonator	4.28	2.75	1.91	1.44
30000 kPa, quartz crystal resonator	4.78	3.11	2.13	1.58
40000 kPa, quartz crystal resonator	5.39	3.37	2.33	1.73
50000 kPa, quartz crystal resonator	5.94	3.74	2.55	1.9
60000 kPa, quartz crystal resonator	6.65	4.11	2.82	2.05
70000 kPa, quartz crystal resonator	7.25	4.45	3.08	2.22
80000 kPa, quartz crystal resonator	8.13	4.92	3.29	2.4
90000 kPa, quartz crystal resonator	8.91	5.46	3.6	2.58
100000 kPa, quartz crystal resonator	9.76	5.96	3.94	2.78
120000 kPa, quartz crystal resonator	11.9	6.77	4.55	3.22
140000 kPa, quartz crystal resonator	–	8.06	5.27	3.68
160000 kPa, quartz crystal resonator	–	9.57	6.1	4.19
180000 kPa, quartz crystal resonator	–	–	6.98	4.76
200000 kPa, quartz crystal resonator	–	–	7.85	5.28

[2]
Settings	molar heat capacity at constant pressure [J/K/mol]
297.91 K	459.03
307.79 K	464.37
317.66 K	469.8
327.54 K	475.42
337.42 K	481.45
347.29 K	487.46
357.17 K	493.28
367.05 K	499.88
376.92 K	507.07
386.8 K	515.39

CCCCCCCCCCCC(=O)OC [methyl dodecanoate]
[1]
Settings	mass density [kg/m3]	speed of sound [m/s]
293.15 K, 100 kPa	–	1351.3
293.15 K, 101.33 kPa	869.2	–
293.15 K, 10000 kPa	–	1400.9
293.15 K, 20000 kPa	–	1445.1
293.15 K, 30000 kPa	–	1486.4
293.15 K, 40000 kPa	–	1526.9
293.15 K, 50000 kPa	–	1563.8
293.15 K, 60000 kPa	–	1600
293.15 K, 70000 kPa	–	1628.6
293.15 K, 80000 kPa	–	1660.5
293.15 K, 90000 kPa	–	1690.9
303.15 K, 101.33 kPa	861.4	–
313.15 K, 100 kPa	–	1276.4
313.15 K, 101.33 kPa	853.8	–
313.15 K, 10000 kPa	–	1328
313.15 K, 20000 kPa	–	1375.3
313.15 K, 30000 kPa	–	1420
313.15 K, 40000 kPa	–	1461.6
313.15 K, 50000 kPa	–	1500.9
313.15 K, 60000 kPa	–	1537
313.15 K, 70000 kPa	–	1573.3
313.15 K, 80000 kPa	–	1607.4
313.15 K, 90000 kPa	–	1637.8
313.15 K, 100000 kPa	–	1671.1
313.15 K, 120000 kPa	–	1728.6
313.15 K, 140000 kPa	–	1784.4
323.15 K, 101.33 kPa	845.8	–
333.15 K, 100 kPa	–	1205.5
333.15 K, 101.33 kPa	837.9	–
333.15 K, 10000 kPa	–	1259.6
333.15 K, 20000 kPa	–	1311
333.15 K, 30000 kPa	–	1357.5
333.15 K, 40000 kPa	–	1401
333.15 K, 50000 kPa	–	1441.3
333.15 K, 60000 kPa	–	1480.9
333.15 K, 70000 kPa	–	1515.7
333.15 K, 80000 kPa	–	1550.8
333.15 K, 90000 kPa	–	1585.9
333.15 K, 100000 kPa	–	1621.9
333.15 K, 120000 kPa	–	1682
333.15 K, 140000 kPa	–	1739.2
333.15 K, 160000 kPa	–	1791.8
333.15 K, 180000 kPa	–	1843.5
333.15 K, 200000 kPa	–	1893.2
343.15 K, 101.33 kPa	830	–
353.15 K, 100 kPa	–	1133.5
353.15 K, 101.33 kPa	822.2	–
353.15 K, 10000 kPa	–	1192.2
353.15 K, 20000 kPa	–	1247.2
353.15 K, 30000 kPa	–	1295.9
353.15 K, 40000 kPa	–	1342.5
353.15 K, 50000 kPa	–	1386.1
353.15 K, 60000 kPa	–	1426.2
353.15 K, 70000 kPa	–	1463.8
353.15 K, 80000 kPa	–	1500.1
353.15 K, 90000 kPa	–	1534.8
353.15 K, 100000 kPa	–	1568.3
353.15 K, 120000 kPa	–	1632.8
353.15 K, 140000 kPa	–	1690.8
353.15 K, 160000 kPa	–	1744.4
353.15 K, 180000 kPa	–	1802.7
353.15 K, 200000 kPa	–	1851.2

viscosity [mPa·s], [1]
Settings	293.15 K	313.15 K	333.15 K	353.15 K
101.33 kPa, Capillary tube (Ostwald / Ubbelohde) method	3.14	2.05	1.45	1.09
10000 kPa, quartz crystal resonator	3.53	2.3	1.61	1.21
20000 kPa, quartz crystal resonator	3.96	2.59	1.78	1.33
30000 kPa, quartz crystal resonator	4.4	2.85	1.98	1.48
40000 kPa, quartz crystal resonator	5	3.16	2.18	1.62
50000 kPa, quartz crystal resonator	5.64	3.5	2.39	1.76
60000 kPa, quartz crystal resonator	6.21	3.85	2.62	1.92
70000 kPa, quartz crystal resonator	6.79	4.22	2.82	2.08
80000 kPa, quartz crystal resonator	7.58	4.64	3.07	2.25
90000 kPa, quartz crystal resonator	–	5.06	3.36	2.46
100000 kPa, quartz crystal resonator	–	5.55	3.63	2.65
120000 kPa, quartz crystal resonator	–	6.67	4.26	3.09
140000 kPa, quartz crystal resonator	–	7.67	4.95	3.54
160000 kPa, quartz crystal resonator	–	–	5.75	4.06
180000 kPa, quartz crystal resonator	–	–	6.56	4.64
200000 kPa, quartz crystal resonator	–	–	7.56	5.34

[2]
Settings	molar heat capacity at constant pressure [J/K/mol]
297.91 K	433.79
307.79 K	438.57
317.66 K	443.29
327.54 K	448.34
337.42 K	453.83
347.29 K	459.28
357.17 K	464.66
367.05 K	470.72
376.92 K	477.82
386.8 K	485.49
